The record followed here is US7312344B2, “Dimeric isoflavones” (Novogen Research Pty Limited, priority 2001, dated 2007).

Test [1] addresses T1, recombinant human estrogen receptors-alpha (ER-α) (Homo sapiens, UniProt P03372).
T1 construct: purchased
T1 sequence (P03372 1-595): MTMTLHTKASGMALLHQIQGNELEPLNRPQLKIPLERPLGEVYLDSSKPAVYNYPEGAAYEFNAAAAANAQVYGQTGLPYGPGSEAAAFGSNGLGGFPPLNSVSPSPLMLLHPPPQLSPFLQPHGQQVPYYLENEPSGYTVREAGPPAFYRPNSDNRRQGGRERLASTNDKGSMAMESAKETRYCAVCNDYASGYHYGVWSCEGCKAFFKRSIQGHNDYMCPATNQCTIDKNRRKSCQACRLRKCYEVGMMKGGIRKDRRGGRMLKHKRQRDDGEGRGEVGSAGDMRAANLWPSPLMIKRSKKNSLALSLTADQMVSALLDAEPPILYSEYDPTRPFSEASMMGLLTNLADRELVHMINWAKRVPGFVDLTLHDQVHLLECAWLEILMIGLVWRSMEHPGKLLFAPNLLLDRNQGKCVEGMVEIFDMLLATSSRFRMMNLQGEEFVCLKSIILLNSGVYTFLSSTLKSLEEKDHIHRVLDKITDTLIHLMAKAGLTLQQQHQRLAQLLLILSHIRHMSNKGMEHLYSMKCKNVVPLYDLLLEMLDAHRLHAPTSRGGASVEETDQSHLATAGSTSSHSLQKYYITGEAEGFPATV
Description: Estrogen receptor competitive binding assay (fluorescence polarization kit), ER-α. How it is done: (§1) The ability of the tetraphenolic dimer (Structure 3) and tetraacetoxy dimer (Structure 2) to interact with estrogen receptor alpha and beta was determined using a commercially available estrogen receptor binding kit. This kit employs a competitive binding assay to determine the relative binding affinity of test compounds for recombinant human estrogen receptors-alpha (ER-α) and beta (ER-β). […] The complex is then added to decreasing concentrations of competitor test compounds. The shift in polarization in the presence of test compound is used to determine the relative affinity of test compounds for the estrogen receptor.
A general note: Fluorescence polarisation rises when a labelled molecule tumbles more slowly, as on binding a larger partner.

The test system of a further test is lung (NCI-H23). The experiment in a line: Cell cytotoxicity assay (MTT), NCI-H23. Format: cell-based, human. Particulars: read-out: Cell Line IC50 NCI-H23. How it is done:
(§2) The anticancer potential of the tetraphenolic dimer (Structure 3) and the tetraacetoxy dimer (Structure 2) was assessed using a panel of human tumour cell lines, including glioma (C6), prostate (PC3), breast (MCF-7), soft tissue (Kym-1) and lung (NCI-H23 and NCI-H460). The cell cytotoxicity assay was conducted as per the method of Alley et al., 1988. Cell lines are exposed to varying concentrations of test compound for a fixed time. At the conclusion of the assay, the viability of the cell population is determined using the hydrogen acceptor reagent 3-(4,5-dimethylthiazol-2-yl)-2,5 diphenyltetrazolium bromide (MTT). The concentration of compound required to inhibit 50% of cell growth in comparison to a control (IC50) is an indicator of effectiveness of the compound. (i.e. the lower the concentration of compound required to inhibit 50% of normal cell proliferation, the more efficacious).

Another test concerns breast (MCF-7). The experiment in a line: Cell cytotoxicity assay (MTT), MCF-7. It counts as cell-based, human. On the procedure: as §2
Another test deals with prostate (PC3). The experiment in a line: Cell cytotoxicity assay (MTT), PC3. Format: cell-based, human. Particulars: read-out: Cell Line IC50 PC3. On the procedure:
as §2

Test [2] deals with T2, recombinant human estrogen receptor beta (ER-β) (Homo sapiens, UniProt Q92731).
T2 construct: purchased
Description: Estrogen receptor competitive binding assay (fluorescence polarization kit), ER-β. How it is done: as §1

The next test deals with glioma (C6). Description: Cell cytotoxicity assay (MTT), C6 glioma. It counts as cell-based, human. Particulars: Rattus norvegicus, read-out: Cell Line IC50 C6 Glioma. How it is done:
as §2

In the next test the test system is lung (NCI-H460). The experiment in a line: Cell cytotoxicity assay (MTT), NCI-H460. It counts as cell-based. Particulars: Homo sapiens, read-out: Cell Line IC50 NCI-H460. How it is done: as §2
For a further test, the system named is soft tissue (Kym-1). The experiment in a line: Cell cytotoxicity assay (MTT), Kym-1. It counts as cell-based. Conditions: Homo sapiens, read-out: Cell Line IC50 Kym-1. How it is done:
as §2

Each structure is given as a SMILES string. Where two headings read alike, the source gives them in different places.

T2 sequence (Q92731 whole entry): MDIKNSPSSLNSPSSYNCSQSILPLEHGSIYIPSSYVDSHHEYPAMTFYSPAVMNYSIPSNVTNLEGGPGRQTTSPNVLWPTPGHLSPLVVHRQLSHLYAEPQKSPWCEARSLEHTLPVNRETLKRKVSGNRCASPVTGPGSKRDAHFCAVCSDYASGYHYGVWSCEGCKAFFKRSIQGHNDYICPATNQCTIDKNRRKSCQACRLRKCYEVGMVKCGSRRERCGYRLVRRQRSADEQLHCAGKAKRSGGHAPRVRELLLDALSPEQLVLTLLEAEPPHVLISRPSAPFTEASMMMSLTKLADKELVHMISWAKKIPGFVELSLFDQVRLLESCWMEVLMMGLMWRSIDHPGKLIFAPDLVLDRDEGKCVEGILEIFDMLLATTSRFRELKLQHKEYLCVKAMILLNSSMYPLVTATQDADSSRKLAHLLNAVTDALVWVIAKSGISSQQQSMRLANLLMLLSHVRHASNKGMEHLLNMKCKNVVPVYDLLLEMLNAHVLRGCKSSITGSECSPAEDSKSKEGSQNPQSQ

For `CC(=O)Oc1ccc(C2=Cc3cc(C4c5ccc(OC(C)=O)cc5OCC4c4ccc(OC(C)=O)cc4)c(OC(C)=O)cc3OC2)cc1` (stereo not shown) [Structure 2, Tetraacetoxy 6-(4-(isoflavan-4′,7-diol))-isoflav-3-ene-4′,7-diol], the “binding to ER-α (in words)” value in test [1] was “did not bind”. Besides, the IC50 (as a rule, the concentration at which inhibition is half-maximal) in the test on lung (NCI-H23) was determined as 7.3 µM; in the test on breast (MCF-7) (read-out: Cell Line IC50 MCF-7), 10 ± 5 µM; with prostate (PC3) it was 6 µM. Further, in test [2], the “binding to ER-β (in words)” value was “did not bind”.

Turning to `Oc1ccc(C2=Cc3cc(C4c5ccc(O)cc5OCC4c4ccc(O)cc4)c(O)cc3OC2)cc1` (stereo not shown) [Structure 3, 6-(4-(Isoflavan-4′,7-diol))-isoflav-3-ene-4′,7-diol], the EC50 in test [1] (read-out: concentration required to displace 50% of bound fluorescent estrogen ligand (EC50), ER-alpha) worked out at 0.35 ± 0.05 µM; in test [2] (read-out: concentration required to displace 50% of bound fluorescent estrogen ligand (EC50), ER-beta) it was 0.37 ± 0.05 µM. Also, the IC50 in the test with lung (NCI-H23) (Homo sapiens) was 13.5 µM; in the test with breast (MCF-7) (Homo sapiens, MCF7, read-out: Cell Line IC50 MCF-7), 18 ± 2 µM; with prostate (PC3) (Homo sapiens), 13.5 µM; in the test on glioma (C6), 17.5 µM; in the test on lung (NCI-H460) it was 14.4 µM; with soft tissue (Kym-1), 3.2 µM.
